Experiment [1] has as its system Rattus norvegicus. Kind of experiment: Minimum dose required for anticonvulsant activity when given i.p., in mice upon subcutaneous picrotoxin seizure; Absence of activity. The class given is functional, organism-based. Particulars: Mus musculus.
The test system of experiment [2] is Rattus norvegicus. Description: Effective dose required for anticonvulsant activity when given i.p., at 2 hr in rat upon maximal electroshock seizure. Particulars: ip. The class given is functional.
Experiment [3] has as its system Mus musculus. Kind of experiment: Minimum dose required for anticonvulsant activity when given i.p., in mice upon neurotoxicity seizure using rotarod test. A general note: In the rotarod test animals must keep their balance on a rotating rod.
Experiment [4] has as its system Mus musculus. Kind of experiment: Minimum dose required for anticonvulsant activity when given i.p., at 0.5 hr in mice upon neurotoxicity seizure using rotarod test. The class given is functional.
The test system of experiment [5] is Mus musculus. Description: Post treatment activity score for CNS study using a actophotometer at a dose of 100 mg/Kg after 1 hr when given i.p., in mice (No. of animals 6); Control (24h before) 247.
Experiment [6] has as its system Rattus norvegicus. Description: Enzymatic activity to assess the increase in level of SGPT at a dose of 30 mg/Kg for 14 days when given p.o., in 6 rats; Control 45.0. The format is functional.
The test system of experiment [7] is Rattus norvegicus. Description: Number of rats protected at a dose of 30 mg/Kg when given oral at 2 hr upon maximal electroshock seizure; Total number of rats = 4. The class given is functional. A general note: The maximal electroshock test induces tonic seizures with an electrical stimulus.
Experiment [8] relates to Rattus norvegicus. Description: Number of rats protected at a dose of 30 mg/Kg when given oral at 1 hr upon maximal electroshock seizure; Total number of rats = 4. The class given is functional.
Experiment [9] has as its system Rattus norvegicus. Kind of experiment: Minimum dose required for anticonvulsant activity when given i.p., at 0.5 hr in mice upon subcutaneous pentylenetetrazole seizure; Absence of activity. The format is functional, organism-based. Particulars: Mus musculus.
The test system of experiment [10] is Rattus norvegicus. Kind of experiment: Enzymatic activity to assess the increase in level of SGOT at a dose of 30 mg/Kg for 14 days when given p.o., in 6 rats; Control 73.1. The format is functional.
Experiment [11] deals with Mus musculus. Kind of experiment: Minimum dose required for anticonvulsant activity when given i.p., at 4 hr in mice upon maximal electroshock seizure. The class given is functional.
In experiment [12] the test system is Mus musculus. Kind of experiment: Minimum dose required for anticonvulsant activity when given i.p., at 0.5 hr in mice upon maximal electroshock seizure. The format is functional.
For experiment [13], the system named is Rattus norvegicus. Kind of experiment: Number of rats protected at a dose of 30 mg/Kg when given oral at 0.5 hr upon maximal electroshock seizure; Total number of rats = 4. The class given is functional.
Experiment [14] relates to Mus musculus. Description: Post treatment activity score for CNS study using a actophotometer at a dose of 100 mg/Kg after 0.5 hr when given i.p., in mice (No. of animals 6); Control (24h before) 247.
Experiment [15] has as its system Rattus norvegicus. Description: Minimum dose required for anticonvulsant activity when given i.p., at 2 hr in mice upon subcutaneous strychnine seizure; Absence of activity. Particulars: Mus musculus. The format is functional, organism-based.
For experiment [16], the system named is Rattus norvegicus. Description: Toxic dose observed for anticonvulsant activity when given i.p., at 2 hr in rat upon neurotoxicity seizure. The class given is functional. The following applies: ip.
Experiment [17] deals with Rattus norvegicus. Kind of experiment: Number of rats protected at a dose of 30 mg/Kg when given oral at 4 hr upon maximal electroshock seizure; Total number of rats = 4. The class given is functional.
For experiment [18], the system named is Rattus norvegicus. Kind of experiment: Number of rats protected at a dose of 30 mg/Kg when given oral at 0.25 hr upon maximal electroshock seizure; Total number of rats = 4. The class given is functional.
Experiment [19] concerns Rattus norvegicus. Description: Toxic dose observed for anticonvulsant activity when given orally at 2 hr in rat upon neurotoxicity seizure. The format is functional. The following applies: po.
Experiment [20] deals with Mus musculus. Description: Minimum dose required for anticonvulsant activity when given i.p., at 0.5 hr in mice upon subcutaneous strychnine seizure. The class given is functional.
For experiment [21], the system named is Mus musculus. Description: Post treatment activity score for CNS study using a actophotometer at a dose of 100 mg/Kg after 1 hr when given i.p., in mice (No. of animals 6); Control (24h before) 201.
Experiment [22] has as its system Mus musculus. Description: Post treatment activity score for CNS study using a actophotometer at a dose of 100 mg/Kg after 0.5 hr when given i.p., in mice (No. of animals 6); Control (24h before) 201.
Experiment [23] deals with Mus musculus. Description: Minimum dose required for anticonvulsant activity when given i.p., at 2 hr in mice upon subcutaneous strychnine seizure. The class given is functional.
Experiment [24] relates to Mus musculus. Kind of experiment: Minimum dose required for anticonvulsant activity when given i.p., at 0.5 hr in mice upon subcutaneous pentylenetetrazole seizure. The format is functional.
Experiment [25] concerns Mus musculus. Kind of experiment: Post treatment activity score for CNS study using a actophotometer at a dose of 100 mg/Kg after 0.5 hr when given i.p., in mice (No. of animals 6); Control (24h before) 372.
For experiment [26], the system named is Mus musculus. Description: Post treatment activity score for CNS study using a actophotometer at a dose of 100 mg/Kg after 1 h when given i.p., in mice (No. of animals 6); Control (24h before) 372.
The test system of experiment [27] is Rattus norvegicus. Description: Number of rats protected at a dose of 30 mg/Kg when given oral at 4 hr upon maximal electroshock seizure; Total number of rats = 4; Absence of activity. The class given is functional, organism-based.
Experiment [28] deals with Mus musculus. Kind of experiment: Post treatment immobility time for CNS study using Porsolt's swimpool test at a dose of 100 mg/Kg after 1 hr when given i.p., in mice (No. of animals 6); Control (24h before) 131.
The test system of experiment [29] is Rattus norvegicus. Kind of experiment: Number of rats protected at a dose of 30 mg/Kg when given oral at 0.5 hr upon maximal electroshock seizure; Total number of rats = 4; Absence of activity. The class given is functional, organism-based.
Experiment [30] concerns Rattus norvegicus. Kind of experiment: Number of rats protected at a dose of 30 mg/Kg when given oral at 1 hr upon maximal electroshock seizure; Total number of rats = 4; Absence of activity. The class given is functional, organism-based.
The test system of experiment [31] is Rattus norvegicus. Kind of experiment: Number of rats protected at a dose of 30 mg/Kg when given oral at 0.25 hr upon maximal electroshock seizure; Total number of rats = 4; Absence of activity. The format is functional, organism-based.
Experiment [32] has as its system Rattus norvegicus. Description: Number of rats protected at a dose of 30 mg/Kg when given oral at 2 hr upon maximal electroshock seizure; Total number of rats = 4; Absence of activity. The format is functional, organism-based.

The source made the active and inactive calls. The rule behind the calls is not given here.

`O=C1NC(=O)C(c2ccccc2)(c2ccccc2)N1` [PHENYTOIN]: the PIC seizure result in the experiment with Rattus norvegicus [1] was “inactive”. The ED50 (as a rule, the midpoint of the dose-response relation) in the experiment on Rattus norvegicus [2] was found to be 6.48 mg/kg. Besides, the NT in the experiment with Mus musculus [3] and with Mus musculus [4] was 100 mg/kg throughout. In addition, the Activity with Mus musculus [5] turned out to be 106; in the experiment on Rattus norvegicus [7] it was 3; with Rattus norvegicus [8], 3; with Rattus norvegicus [13], 4; in the experiment on Mus musculus [14], 104; in the experiment on Rattus norvegicus [17], 3. Moreover, the Activity in the experiment with Rattus norvegicus [18] is reported as 1. The SGPT activity in the experiment on Rattus norvegicus [6] is reported as 52.6 units/mL. Also, the PTZ seizure entry in the experiment with Rattus norvegicus [9] was “inactive”. Moreover, in the experiment on Rattus norvegicus [10], the SGOT activity turned out to be 84.1 units/mL. Further, the MES in the experiment on Mus musculus [11] and in the experiment with Mus musculus [12] was 30 mg/kg in each case. Further, the STY seizure result with Rattus norvegicus [15] was “inactive”. Also, the TD50 (as a rule, the 50% point of the dose-response relation for the toxic effect studied) with Rattus norvegicus [16] was 42.8 mg/kg; with Rattus norvegicus [19], more than 500 mg/kg.
In the experiment on Mus musculus [4], `Cc1cccc(C)c1NC(=O)/N=N/c1c(O)[nH]c2ccc(Br)cc12` gave an NT of 300 mg/kg. Moreover, the Activity with Rattus norvegicus [7] is reported as 2; in the experiment on Rattus norvegicus [8], 0; in the experiment with Mus musculus [21], 176; in the experiment on Rattus norvegicus [13], 1; in the experiment on Mus musculus [22], 172; in the experiment on Rattus norvegicus [17], 0. For the same molecule, the Activity with Rattus norvegicus [18] is on record as 1. The STY seizure with Mus musculus [20] came out at 30 mg/kg; with Mus musculus [23], 100 mg/kg. For the same molecule, the MES amounted to 300 mg/kg in the experiment with Mus musculus [11] and 100 mg/kg with Mus musculus [12].
`Cc1ccc2[nH]c(O)c(/N=N/C(=O)Nc3c(C)cccc3C)c2c1` displayed an NT in the experiment with Mus musculus [4] of 300 mg/kg. Besides, the Activity in the experiment with Rattus norvegicus [7] is 3; in the experiment with Rattus norvegicus [8], 3; in the experiment on Rattus norvegicus [13], 1; in the experiment with Mus musculus [25] it was 355; with Mus musculus [26] it was 368; in the experiment with Rattus norvegicus [17] it was 3. The Activity in the experiment on Rattus norvegicus [18] is reported as 1. Also, the results for the STY seizure in the experiment with Mus musculus [20] and in the experiment with Mus musculus [23] were 30 mg/kg and 100 mg/kg, respectively. Further, the values for the MES in the experiment with Mus musculus [11] and in the experiment on Mus musculus [12] were 300 mg/kg and 100 mg/kg, respectively. This molecule registered a PTZ seizure with Mus musculus [24] of 300 mg/kg.
For the molecule `NC(=O)N1c2ccccc2C=Cc2ccccc21` [CARBAMAZEPINE], the result in the experiment with Rattus norvegicus [27], in the experiment on Rattus norvegicus [29], in the experiment with Rattus norvegicus [30], with Rattus norvegicus [31] and in the experiment with Rattus norvegicus [32] was inactive. Also, in the experiment on Mus musculus [4], the NT was 100 mg/kg. The same molecule returned an Activity with Mus musculus [28] of 207. Moreover, the MES in the experiment on Mus musculus [11] stood at 100 mg/kg; in the experiment on Mus musculus [12], 30 mg/kg. The STY seizure result in the experiment on Rattus norvegicus [15] is “inactive”. Also, in the experiment on Mus musculus [24], the PTZ seizure is 100 mg/kg.

Source of the values: ChEMBL document CHEMBL1141099, “Discovery of N-(2,6-dimethylphenyl)-substituted semicarbazones as anticonvulsants: hybrid pharmacophore-based design” (2005).
